The target of this test is T1, FLAG-p38δ (Homo sapiens, UniProt O15264).
T1 construct: expressed in transfected cells; host or cells: HeLa cells, transient transfection with Lipofectamine 2000
T1 sequence (O15264 1-365): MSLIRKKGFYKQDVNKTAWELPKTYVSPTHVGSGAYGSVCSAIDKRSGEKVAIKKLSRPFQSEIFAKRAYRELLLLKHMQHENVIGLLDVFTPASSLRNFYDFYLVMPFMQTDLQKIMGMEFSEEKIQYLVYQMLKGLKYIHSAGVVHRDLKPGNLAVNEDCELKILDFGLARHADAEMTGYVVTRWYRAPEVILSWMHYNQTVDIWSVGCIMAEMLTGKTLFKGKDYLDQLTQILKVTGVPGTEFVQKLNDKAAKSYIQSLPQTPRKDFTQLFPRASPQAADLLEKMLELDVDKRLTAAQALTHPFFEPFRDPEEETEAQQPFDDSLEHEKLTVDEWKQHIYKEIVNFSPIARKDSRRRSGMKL
As to the kind of experiment: Ubiquitination assay, HeLa cells co-transfected with HA-Ub and FLAG-p38δ. Particulars: 1 μM. Format: cell-based. From the text:
FIGS. 15A, 15B, and 15C. Differential p38δ:PROTAC:VHL ternary complex affinities result in distinct cellular ubiquitination outcomes. (A) Both exemplary compound 50 and 46 pull-down p38δ in vitro, however compound 46 maintains ternary complex at lower concentrations. As in FIG. 14A, GST-tagged VBC was used as a bait to trap recombinant p38δ in the presence of vehicle (DMSO) or the indicated concentrations of compound 50 or 46. The rightmost lane represents a 1:25 dilution of initial input protein used in each pull-down. […] Samples were assessed by western blot and CUL2 and α-tubulin serve as positive and negative GST-VBC immunoprecipitation controls, respectively. […] FLAGimmunoprecipitated lysates were separated by SDS-PAGE and assessed via western blots detecting HA (Ub). […]
HeLa cells (2×10^6) were seeded into 10 cm dishes and allowed to adhere overnight. […] Lysates were spun down at 14,000×g at 4° C. for 20 minutes and protein content was measured by Pierce BCA Protein Assay (ThermoFisher Scientific). […] Immunoprecipitated protein was eluted off of the beads by heating at 95° C. for 5 minutes and the supernatant was run on an SDS-PAGE gel and evaluated for the presence of immunoprecipitated FLAG-tagged proteins (anti-FLAG M2, Sigma #F1804), as well as ubiquitinated FLAG-tagged proteins (anti-HA-tag (6E2), CST #2367). […]

The values that follow come from patent US20180353501A1 (Arvinas, Inc., priority 2017, published 2018).

With `COc1cc2c(Oc3ccc(NC(=O)C4(C(=O)Nc5ccc(F)cc5)CC4)cc3F)ccnc2cc1OCCOCCOCCOc1cc(-c2scnc2C)ccc1CNC(=O)[C@@H]1C[C@@H](O)CN1C(=O)[C@H](C(C)C)N1Cc2ccccc2C1=O` [compound 46], the “ubiquitination of FLAG-immunoprecipitated p38δ” value was “levels of ubiquitination of FLAG-immunoprecipitated p38δ greater than control cells”.
In the case of `COc1cc2c(Oc3ccc(NC(=O)C4(C(=O)Nc5ccc(F)cc5)CC4)cc3F)ccnc2cc1OCCCCOCCCCOCC(=O)N[C@H](C(=O)N1C[C@H](O)C[C@H]1C(=O)NCc1ccc(-c2scnc2C)cc1)C(C)(C)C` [compound 50, N-(3-fluoro-4-((7-(4-(4-(2-(((S)-1-((2S,4R)-4-hydroxy-2-((4-(4-methylthiazol-5-yl)benzyl)carbamoyl)pyrrolidin-1-yl)-3,3-dimethyl-1-oxobutan-2-yl)amino)-2-oxoethoxy)butoxy)buto-xy)-6-methoxyquinolin-4-yl)oxy)phenyl)-N-(4-fluorophenyl)cyclopropane-1,1-dicarboxa-mide] it was “far less abundant”.
